Source: patent publication US11591369B2, “Alpha(v)beta(6) integrin-binding peptides and methods of use thereof” (priority 2018, dated 2023)
“And” between values parts separate entries of the source, which are not always exact repeats. Equal values may be shown once. Read-outs that look alike come from different tables or passages of the source. Primed or numbered codes have the meaning given here. Where no end group is shown, it is not given here. [ ]: non-standard residue; d: D form. The star is where a group is joined. (18F)FB = [18F] fluorobenzoyl group, O=C(c1ccc([18F])cc1)*; (18F)FB″ = [18F]fluorobenzoyl, O=C(c1ccc([18F])cc1)*; PEG12′ = polyethylene glycol, 12 units; PEG28″ = polyethylene glycol, 28 units; PEG2′ = polyethylene glycol, 2 units; PEG4′ = polyethylene glycol, 4 units; PEG8′ = polyethylene glycol, 8 units; PEG28′ = polyethylene glycol-28; Amb = aminomethylbenzoyl

Key:
DX3puroβ6 (αvβ6+) cells = test: [18F]-radiolabeled peptide cell binding and internalization, DX3puroβ6 (αvβ6+) cells; assay type: cell-based, human; parameters: fold increase in binding to DX3puroβ6 (αvβ6+) cells / fold lower binding to DX3puroβ6 (αvβ6+) cells: reference not given here; conditions: for percent internalized relative to the amount bound to DX3puroβ6 (αvβ6+) cells / binding to DX3puroβ6 (αvβ6+) cells: 1 hour; for binding to DX3puroβ6 (αvβ6+) cells: % of total activity, 37° C.
[1] = 37° C., 1 hour, radio-HPLC

| Substance | percent internalized relative to the amount bound to DX3puroβ6 (αvβ6+) cells (DX3puroβ6 (αvβ6+) cells) [%] | binding to DX3puroβ6 (αvβ6+) cells (DX3puroβ6 (αvβ6+) cells) | intact peptide in mouse serum [1] | DX3puroβ6 (αvβ6+)/DX3puro (αvβ6−) selectivity ratio (DX3puroβ6 (αvβ6+) cells) | fold loss in selectivity for DX3puroβ6 (αvβ6+) cells (DX3puroβ6 (αvβ6+) cells) [fold] | fold decline in binding to DX3puroβ6 (αvβ6+) cells (DX3puroβ6 (αvβ6+) cells; compared to the parent T1) [fold] | intact peptide in mouse serum ([1]; 60 min) | fold lower binding to DX3puroβ6 (αvβ6+) cells (DX3puroβ6 (αvβ6+) cells) [fold] | fold increase in binding to DX3puroβ6 (αvβ6+) cells (DX3puroβ6 (αvβ6+) cells) [fold] |
| --- | --- | --- | --- | --- | --- | --- | --- | --- | --- |
| VGDLTYLKK([^18F]FB) (VGDLTYLKK((18F)FB″)) [[^18F]P1] | 3.7±0.6 | 12.8±1.9% | 25% and < 25% |  |  |  |  |  |  |
| VGDLTYLKK([^18F]FB)KVART (VGDLTYLKK((18F)FB″)KVART) [[^18F]P1K-a] |  | 6.2±1.3% | > 99% |  |  |  |  |  |  |
| [^18F]FB-Amb-VGDLTYLKQKVART-PEG28 ({(18F)FB″-Amb}-VGDLTYLKQKVART[PEG28′]) [N-[^18F]T1-f] | 25.2±2.4 | 6.8±0.2% | < 50% | 3.2±0.4 :1 | 13 | 3 |  |  |  |
| [^18F]FB-PEG2-VGDLTYLKQKVART-PEG28 ({(18F)FB″-PEG2′}-VGDLTYLKQKVART[PEG28″]) [N-[^18F]T1-a] | 31.1±7.2 |  | 65% |  |  |  |  |  |  |
| [^18F]FB-PEG4-VGDLTYLKQKVART-PEG28 ({(18F)FB″-PEG4′}-VGDLTYLKQKVART[PEG28″]) [N-[^18F]T1-b] | 33.9±7.9 |  |  |  |  |  | 72% and 75% |  |  |
| [^18F]FB-PEG8-VGDLTYLKQKVART-PEG28 ({(18F)FB″-PEG8′}-VGDLTYLKQKVART[PEG28″]) [N-[^18F]T1-c] | 36.9±3 |  | 91% |  |  |  |  |  |  |
| [^18F]FB-PEG12-VGDLTYLKQKVART-PEG28 ({(18F)FB″-PEG12′}-VGDLTYLKQKVART[PEG28″]) [N-[^18F]T1-d] | 32±13 |  | 82% |  |  |  |  |  |  |
| [^18F]FB-PEG28Amb-VGDLTYLKQKVART-PEG28 ({(18F)FB-PEG28′-Amb}-VGDLTYLKQKVART[PEG28′]) [N-[^18F]T1-g] | 43.1±4.4 | 3±0.2% | 90% | 5.7±0.06 :1 and 5.7±0.05 :1 | 7 |  |  | 2 |  |
| [^18F]FB-RGDLADLRQKVART ({(18F)FB″}-RGDLADLRQKVART) [N-[^18F]P3Q] | 12.4±3.6 | 20±0.4% and 20±0.2% and 20% | 16% |  |  |  |  |  |  |
| [^18F]FB-RGDLTYLKQKVART-PEG28 ({(18F)FB″}-RGDLTYLKQKVART[PEG28′]) [N-[^18F]T1-V1R] | 11.1±2.6 | 34.2±0.2% | 54% | 11.1±0.5 :1 |  |  |  |  | 6 |
| [^18F]FB-VGDLTYLKQKVART-PEG28 ({(18F)FB″}-VGDLTYLKQKVART[PEG28′]) [N-[^18F]T1] |  | 18.1±0.8% | 61% | 41.7±5.3 :1 |  |  |  |  | 3 |
